Key:
circulating FAPα [1] = target: T1, circulating FAPα (Homo sapiens, UniProt Q12884); assay: Ex vivo inhibition of circulating FAPα activity from human plasma (PRXS-AMC); type: biochemical
T1 construct: from tissue; host or cells: human plasma (EDTA-K2) from healthy volunteers
T1 sequence (Q12884 24-760 limits assumed): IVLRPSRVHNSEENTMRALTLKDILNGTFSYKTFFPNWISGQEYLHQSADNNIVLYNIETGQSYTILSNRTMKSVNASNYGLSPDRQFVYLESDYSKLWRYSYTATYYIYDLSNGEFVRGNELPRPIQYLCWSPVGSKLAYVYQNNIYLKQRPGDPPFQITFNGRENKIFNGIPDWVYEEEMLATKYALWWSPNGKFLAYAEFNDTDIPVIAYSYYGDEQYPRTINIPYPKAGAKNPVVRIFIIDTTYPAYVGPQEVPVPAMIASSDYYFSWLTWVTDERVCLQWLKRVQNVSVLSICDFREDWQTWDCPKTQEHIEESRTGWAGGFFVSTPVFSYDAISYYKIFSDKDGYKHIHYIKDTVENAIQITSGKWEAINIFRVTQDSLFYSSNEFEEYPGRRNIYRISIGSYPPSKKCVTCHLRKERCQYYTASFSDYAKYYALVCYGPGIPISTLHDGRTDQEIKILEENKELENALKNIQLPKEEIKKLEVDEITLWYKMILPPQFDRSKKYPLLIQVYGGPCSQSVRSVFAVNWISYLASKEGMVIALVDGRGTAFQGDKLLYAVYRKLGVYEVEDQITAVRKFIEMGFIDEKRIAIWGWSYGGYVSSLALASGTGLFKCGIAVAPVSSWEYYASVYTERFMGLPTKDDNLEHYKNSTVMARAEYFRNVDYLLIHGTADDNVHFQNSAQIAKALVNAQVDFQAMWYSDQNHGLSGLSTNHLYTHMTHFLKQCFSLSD
Experimental: Human blood was obtained from healthy young volunteers. Blood samples were collected in tubes coated with EDTA-K2 by venipuncture method, mixed gently, then kept on ice and centrifuged at 2,500×g for 15 minutes at 4° C. After plasma separation, samples were stored at −80° C. in aliquots of 300 μL.
Exemplary compounds were allowed to interact with the enzyme for 15 minutes at 37° C. After pre-incubation, 50 μl of 200 μM PRXS-AMC substrate were added to the all mixtures. All reactions were carried out for 1 h at 37° C. protected from light. AMC release was detected measuring fluorescence at an excitation/emission wavelength of 380/460 nm using a Multifunction Microplate Reader. All measurements were carried out as single point.

[2] = system: human AML cell line MV4-11; assay: Cytotoxicity assay in human leukemia cell lines (Cell-Titer Glo); settings: MV4-11, 48 h, read-out: MV4-11 viability IC50, μM
circulating FAPα [3] = target: circulating FAPα (Mesocricetus auratus, UniProt A0ABM2XF29); assay: Ex vivo inhibition of circulating FAPα activity from hamster plasma (PRXS-AMC); type: biochemical, Golden Syrian hamster
circulating FAPα (Mesocricetus auratus, UniProt A0ABM2XF29), sequence (A0ABM2XF29 24-761 limits assumed): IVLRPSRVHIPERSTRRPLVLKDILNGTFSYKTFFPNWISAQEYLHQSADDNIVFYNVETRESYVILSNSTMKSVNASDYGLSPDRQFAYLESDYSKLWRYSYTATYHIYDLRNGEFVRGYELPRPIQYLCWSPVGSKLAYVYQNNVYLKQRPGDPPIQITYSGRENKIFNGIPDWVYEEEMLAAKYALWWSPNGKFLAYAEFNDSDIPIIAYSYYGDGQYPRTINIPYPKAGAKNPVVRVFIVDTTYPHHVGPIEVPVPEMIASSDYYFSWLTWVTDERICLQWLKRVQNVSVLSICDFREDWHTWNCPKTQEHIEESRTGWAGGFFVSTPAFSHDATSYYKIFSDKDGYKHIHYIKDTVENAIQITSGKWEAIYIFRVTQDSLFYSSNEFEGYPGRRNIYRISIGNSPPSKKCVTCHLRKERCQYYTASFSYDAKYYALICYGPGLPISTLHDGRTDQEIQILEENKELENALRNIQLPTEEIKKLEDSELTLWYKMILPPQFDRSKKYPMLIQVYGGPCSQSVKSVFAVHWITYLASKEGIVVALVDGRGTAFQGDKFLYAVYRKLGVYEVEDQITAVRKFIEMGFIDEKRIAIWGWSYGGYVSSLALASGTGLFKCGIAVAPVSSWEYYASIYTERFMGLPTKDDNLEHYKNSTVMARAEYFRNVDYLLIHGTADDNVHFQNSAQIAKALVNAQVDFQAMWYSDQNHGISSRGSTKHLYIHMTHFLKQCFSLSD
Experimental: Male Golden Syrian hamsters were provided by National Laboratory Animal Center (NLAC) in Taiwan. The animals were maintained in a hygienic environment under controlled temperature (20-24° C.) and humidity (50%-80%) with 12 hours light/dark cycles. Free access to standard lab diet [MFG (Oriental Yeast Co., Ltd. Japan)] and autoclaved tap water were granted. All aspects of this work including housing, experimentation and disposal of animals were performed in general accordance with the “Guide for the Care and Use of Laboratory Animals: Eighth Edition” (National Academies Press, Washington, D.C., 2011). In addition, the animal care and use protocol was reviewed and approved by the IACUC at Pharmacology Discovery Services Taiwan, Ltd. Immediately after the sacrifice of hamsters, blood samples were collected via terminal cardiac puncture in tubes coated with EDTA-K2, mixed gently, then kept on ice and centrifuged at 2,500×g for 15 minutes at 4° C. After plasma separation, samples were stored at −80° C. in aliquots of 300 μL. To assay exemplary compounds in hamster plasma, a similar protocol as described for human plasma was performed diluting thawed plasma 1:2 in cFAP buffer. […] AMC release was detected measuring fluorescence at an excitation/emission wavelength of 380/460 nm using a Multifunction Microplate Reader. […]

SMILES	IC50 (circulating FAPα [1])	IC50 [2]	IC50 (circulating FAPα [3])
N#C[C@@H]1CC(F)(F)CN1C(=O)CNC(=O)c1ccncc1/C=C/c1ccc(Cl)cc1 [Compound 9, (S,E)-3-(4-chlorostyryl)-N-(2-(2-cyano-4,4-difluoropyrrolidin-1-yl)-2-oxoethyl)isonicotinamide]	< 1000 nM	> 10 µM	< 1000 nM
COc1ccc(C(=O)Nc2cnccc2C(=O)NCC(=O)N2CC(F)(F)C[C@H]2C#N)cc1 [Compound 3, (S)—N-(2-(2-cyano-4,4-difluoropyrrolidin-1-yl)-2-oxoethyl)-3-(4-methoxybenzamido)isonicotinamide]	< 1000 nM	–	< 1000 nM

Source: US20200216417A1, “INHIBITORS OF FIBROBLAST ACTIVATION PROTEIN” (Praxis Biotech LLC, priority 2019, published 2020)
